According to ChEMBL document CHEMBL5724696, “Autophagy assay results for EUbOPEN Chemogenomics Library” (2024):
Where “and” joins values, the source holds several entries; their conditions need not be identical. Equal values may be shown once.

How the values were obtained:
Type in all cases: functional, Homo sapiens
U2OS [1] = assay: (§1) Here: values are normalized to the negative (DMSO; defined as 0% autophagy induction) and positive (250nM Torin1; mTOR inhibitor; defined as maximal inducer of autophagy = 100%) control compounds and represented as % of autophagy induction. […] The impact of autophagy induction on cells is complex and depends on the affected target. As such, the magnitude of a phenotype may not be equally mirrored in the %-value of autophagy induction and vice versa. The dynamics of the induction may indicate the mode of activation: e.g. activation via phosphorylation or a signaling cascade may occur fast, while activation via transcription factors may take considerably longer. […] Of note, treatment concentrations may be sub-optimal for specific compounds, leading to false negative annotations.; details: Culturing Media DMEM, 1 % Penicillin/Streptomycin, 10% Fetal bovin serum Add-On: No, Screening Media Control DMEM, Screening Media Samples DMEM
U2OS [2] = assay: as §1; details: Culturing Media DMEM, 1 % Penicillin/Streptomycin, 10% Fetal bovin serum Add-On: No, Screening Media Control DMEM, Screening Media Samples DMEM; remark: listed apart in the source
TERT-RPE1 = assay: as §1; details: Culturing Media DMEM/F12 (1:1), 1 % Penicillin/Streptomycin, 10% Fetal bovin serum Add-On: No, Screening Media Control DMEM/F12 (1:1), Screening Media Samples DMEM/F12 (1:1)
[3] = Compound Concentration 0.5 uM, Timepoint 12 hours
[4] = Compound Concentration 0.5 uM, Timepoint 24 hours
[5] = Compound Concentration 0.5 uM, Timepoint 36 hours
[6] = Compound Concentration 0.5 uM, Timepoint 60 hours
[7] = Compound Concentration 2 uM, Timepoint 12 hours
[8] = Compound Concentration 2 uM, Timepoint 24 hours
[9] = Compound Concentration 2 uM, Timepoint 36 hours
[10] = Compound Concentration 2 uM, Timepoint 60 hours
[11] = Compound Concentration 10 uM, Timepoint 12 hours
[12] = Compound Concentration 10 uM, Timepoint 24 hours
[13] = Compound Concentration 10 uM, Timepoint 36 hours
[14] = Compound Concentration 10 uM, Timepoint 60 hours
[15] = Compound Concentration 0.5 uM, Timepoint 12 hours, 12 h, 0.5 µM
[16] = Compound Concentration 0.5 uM, Timepoint 24 hours, 24 h, 0.5 µM
[17] = Compound Concentration 0.5 uM, Timepoint 36 hours, 36 h, 0.5 µM
[18] = Compound Concentration 0.5 uM, Timepoint 60 hours, 60 h, 0.5 µM
[19] = Compound Concentration 2 uM, Timepoint 24 hours, 24 h, 2 µM
[20] = Compound Concentration 2 uM, Timepoint 36 hours, 36 h, 2 µM
[21] = Compound Concentration 2 uM, Timepoint 60 hours, 60 h, 2 µM
[22] = Compound Concentration 10 uM, Timepoint 12 hours, 12 h, 10 µM
[23] = Compound Concentration 2 uM, Timepoint 12 hours, 12 h, 2 µM
[24] = Compound Concentration 10 uM, Timepoint 24 hours, 24 h, 10 µM
[25] = Compound Concentration 10 uM, Timepoint 36 hours, 36 h, 10 µM
[26] = Compound Concentration 10 uM, Timepoint 60 hours, 60 h, 10 µM

Structure (SMILES) | autophagy induction (U2OS [1]; [3]) [%] | autophagy induction (U2OS [1]; [4]) [%] | autophagy induction (U2OS [1]; [5]) [%] | autophagy induction (U2OS [1]; [6]) [%] | autophagy induction (U2OS [1]; [7]) [%] | autophagy induction (U2OS [1]; [8]) [%] | autophagy induction (U2OS [1]; [9]) [%] | autophagy induction (U2OS [1]; [10]) [%] | autophagy induction (U2OS [1]; [11]) [%] | autophagy induction (U2OS [1]; [12]) [%] | autophagy induction (U2OS [1]; [13]) [%] | autophagy induction (U2OS [1]; [14]) [%] | autophagy induction (U2OS [2]; [3]) [%] | autophagy induction (U2OS [2]; [4]) [%] | autophagy induction (U2OS [2]; [5]) [%] | autophagy induction (U2OS [2]; [6]) [%] | autophagy induction (U2OS [2]; [7]) [%] | autophagy induction (U2OS [2]; [8]) [%] | autophagy induction (U2OS [2]; [9]) [%] | autophagy induction (U2OS [2]; [10]) [%] | other results
CCCNS(=O)(=O)Nc1ncnc(OCCOc2ncc(Br)cn2)c1-c1ccc(Br)cc1 | 2.901 | -2.846 | 0.07503 | -9.912 | 12.0444 | 9.078 | 7.396 | -1.934 | 26.4347 | 18.1089 | 17.8738 | 1.732 | -3.964 | -4.032 | -61.3535 | -1.132 | -0.4685 | -1.227 | -59.7666 | -0.5161 | autophagy induction (U2OS [2]; [11]): 11.7925%; autophagy induction (U2OS [2]; [12]): 5.282%; autophagy induction (U2OS [2]; [13]): -57.2377%; autophagy induction (U2OS [2]; [14]): -0.5877%; autophagy induction (TERT-RPE1; [15]): -0.7197% and -7.3982%; autophagy induction (TERT-RPE1; [16]): 0.659% and -8.96%; autophagy induction (TERT-RPE1; [17]): -3.018% and -8.201%; autophagy induction (TERT-RPE1; [18]): -5.286% and -10.1731%; autophagy induction (TERT-RPE1; [19]): -0.7464% and 17.5664%; autophagy induction (TERT-RPE1; [20]): -1.802% and 12.9792%; autophagy induction (TERT-RPE1; [21]): -3.01% and 8.651%; autophagy induction (TERT-RPE1; [22]): -3.714% and 17.3261%
FC(F)(F)c1cccc(-c2noc(-c3cc(-c4ccccc4)c(C(F)(F)F)s3)n2)c1 | 9.021 | 3.382 | -0.06707 | -12.3398 | 0.8817 | -10.2337 | -8.601 | -22.9781 | -28.6388 | -12.6195 | -3.849 | -3.37 | -1.1495 | -3.455 | -61.0771 | -1.369 | -1.566 | -3.4743 | -60.4788 | -1.735 | autophagy induction (U2OS [2]; [11]): -17.6781%; autophagy induction (U2OS [2]; [12]): -7.308%; autophagy induction (U2OS [2]; [13]): -61.2616%; autophagy induction (U2OS [2]; [14]): -2.196%; autophagy induction (TERT-RPE1; [15]): 1.977% and -3.815%; autophagy induction (TERT-RPE1; [16]): 1.344% and -4.458%; autophagy induction (TERT-RPE1; [17]): 0.88% and -7.47%; autophagy induction (TERT-RPE1; [18]): -0.5412% and -7.068%; autophagy induction (TERT-RPE1; [23]): 8.025% and -0.7273%; autophagy induction (TERT-RPE1; [19]): 4.894% and -1.63%; autophagy induction (TERT-RPE1; [20]): 2.202% and -4.099%; autophagy induction (TERT-RPE1; [21]): 3.847% and -8.453%; autophagy induction (TERT-RPE1; [22]): -16.4913% and 2.616%; autophagy induction (TERT-RPE1; [24]): -1.867% and 1.296%; autophagy induction (TERT-RPE1; [25]): 1.745% and 2.594%
O=C(O)CC1CCC2(CC1)CCN(c1cc(OC(F)(F)F)ccc1Cl)CC2 | -7.253 | -0.0788 | -0.8569 | -4.709 | -6.392 | -5.775 | -5.315 | -3.59 | -7.404 | -7.084 | -0.9405 | -11.9422 | 6.893 | 1.231 | -59.5433 | -1.659 | 4.528 | 2.023 | -58.8057 | 0.09301 | autophagy induction (U2OS [2]; [11]): 1.476%; autophagy induction (U2OS [2]; [12]): -1.647%; autophagy induction (U2OS [2]; [13]): -59.8779%; autophagy induction (U2OS [2]; [14]): -1.029%; autophagy induction (TERT-RPE1; [15]): 1.5088% and -4.208%; autophagy induction (TERT-RPE1; [16]): -1.371% and -2.379%; autophagy induction (TERT-RPE1; [17]): -4.319% and -4.033%; autophagy induction (TERT-RPE1; [18]): -5.803% and -6.663%; autophagy induction (TERT-RPE1; [23]): 7.834% and -3.775%; autophagy induction (TERT-RPE1; [19]): 2.312% and -6.096%; autophagy induction (TERT-RPE1; [20]): -2.505% and -8.733%; autophagy induction (TERT-RPE1; [21]): -5.7463% and -9.633%; autophagy induction (TERT-RPE1; [22]): 5.943% and -1.866%; autophagy induction (TERT-RPE1; [24]): 5.6585% and -2.656%; autophagy induction (TERT-RPE1; [25]): 3.294% and -3.964%; autophagy induction (TERT-RPE1; [26]): -1.174% and -1.531%
COc1ccc(NS(=O)(=O)c2sc3ccc(Cl)cc3c2C)cc1N1CCNCC1.Cl | -11.3104 | -5.358 | -7.917 | -7.314 | 6.008 | 2.399 | -3.71 | -14.5759 | 10.7956 | 3.064 | -4.691 | -6.499 | 2.987 | -0.6318 | -59.945 | -1.761 | 6.036 | -0.4148 | -59.1656 | -2.731 | autophagy induction (U2OS [2]; [11]): 1.788%; autophagy induction (U2OS [2]; [12]): 0.7642%; autophagy induction (U2OS [2]; [13]): -61.0668%; autophagy induction (U2OS [2]; [14]): -6.058%; autophagy induction (TERT-RPE1; [15]): -2.268% and 1.364%; autophagy induction (TERT-RPE1; [16]): -0.6721% and -2.131%; autophagy induction (TERT-RPE1; [17]): -2.429% and -0.9432%; autophagy induction (TERT-RPE1; [18]): -2.224% and -1.994%; autophagy induction (TERT-RPE1; [23]): 1.355% and 0.7844%; autophagy induction (TERT-RPE1; [19]): 2.1639% and -0.4459%; autophagy induction (TERT-RPE1; [20]): 0.7328% and -1.399%; autophagy induction (TERT-RPE1; [21]): 3.483% and -0.5872%; autophagy induction (TERT-RPE1; [22]): 10.6024% and -4.741%; autophagy induction (TERT-RPE1; [24]): 10.2969% and -5.794%; autophagy induction (TERT-RPE1; [25]): 13.8741% and -5.163%; autophagy induction (TERT-RPE1; [26]): 16.669% and -5.902%
